The values below come from ChEMBL document CHEMBL6177930, “2-(4-Bromobenzyl) tethered 4-amino aryl/alkyl-5,6,7,8-tetrahydrobenzo[4,5]thieno[2,3-d]pyrimidines: design, synthesis, anticancer assessment via dual topoisomerase-I/II inhibition, and in silico studies” (RSC Med Chem, 2025).

The subject of assay [1] is FaDu. The assay is described as follows: Inhibition of cell migration in human FaDu cells assessed as reduction in wound closure at 5 uM measured after 48 hrs by bright field microscopic analysis. Type of assay: functional, cell-based.
In assay [2] the test system is FaDu. The assay is described as follows: Induction of morphological changes in human FaDu cells assessed as reduction in cell density at 2 to 5 uM incubated for 48 hrs by bright field microscope based analysis. Type of assay: functional. The note with it: dose 2-5 µM.
For assay [3], the target named is T1, Prostaglandin G/H synthase 2 (Homo sapiens) (UniProt P35354).
T1 sequence (whole entry): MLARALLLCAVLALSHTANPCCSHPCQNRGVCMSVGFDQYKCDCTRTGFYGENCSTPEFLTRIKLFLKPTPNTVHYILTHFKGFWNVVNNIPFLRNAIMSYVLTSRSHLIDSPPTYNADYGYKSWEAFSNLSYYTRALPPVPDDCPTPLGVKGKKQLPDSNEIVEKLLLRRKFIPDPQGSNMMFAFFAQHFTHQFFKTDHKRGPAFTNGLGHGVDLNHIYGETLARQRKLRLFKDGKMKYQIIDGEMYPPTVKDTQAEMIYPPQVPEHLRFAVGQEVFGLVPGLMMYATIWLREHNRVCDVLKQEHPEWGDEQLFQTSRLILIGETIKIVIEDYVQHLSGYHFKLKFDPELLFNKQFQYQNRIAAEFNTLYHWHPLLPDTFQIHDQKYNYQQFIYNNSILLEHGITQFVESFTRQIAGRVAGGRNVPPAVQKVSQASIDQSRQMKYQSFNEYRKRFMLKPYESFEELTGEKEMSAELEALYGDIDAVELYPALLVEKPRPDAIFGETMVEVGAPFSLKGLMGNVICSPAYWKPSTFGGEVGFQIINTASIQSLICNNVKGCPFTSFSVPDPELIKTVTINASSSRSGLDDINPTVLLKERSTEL
The assay is described as follows: Inhibition of human recombinant COX-2 at 10 uM relative to control.

Assay [4] concerns MCF7. The assay is described as follows: Induction of cell cycle arrest in human MCF7 cells assessed as accumulation of cells at G2/M phase measured after 24 hrs by PI staining based flow cytometry analysis (reference value: 14.2%). Type of assay: functional. (A flow cytometer gives signals particle by particle.)
Assay [5] has as its system FaDu. The assay is described as follows: Induction of morphological changes in human FaDu cells assessed as cell membrane blebbing at 2 to 5 uM incubated for 48 hrs by bright field microscope based analysis. Type of assay: functional. The note with it: dose 2-5 µM.
The test system of assay [6] is MCF7. The assay is described as follows: Inhibition of oxidative stress in human MCF7 cells assessed as reduction in ROS production incubated for 24 hrs by DCFH-DA staining based flow cytometry analysis. Type of assay: functional, cell-based.
The subject of assay [7] is FaDu. The assay is described as follows: Induction of apoptosis in human FaDu cells assessed as apoptotic bodies at 1 to 5 uM by DAPI staining based analysis. Type of assay: functional, cell-based. The note with it: dose 1-5 µM.
In assay [8] the test system is FaDu. The assay is described as follows: Antiproliferative activity against human FaDu cells assessed as inhibition of cell growth measured after 48 hrs by MTT assay. Type of assay: functional, cell-based. In general terms: Tetrazolium dyes change colour on reduction, which living cells bring about.
Assay [9] deals with T2, Prostaglandin G/H synthase 1 (Ovis aries) (UniProt P05979).
T2 sequence (whole entry): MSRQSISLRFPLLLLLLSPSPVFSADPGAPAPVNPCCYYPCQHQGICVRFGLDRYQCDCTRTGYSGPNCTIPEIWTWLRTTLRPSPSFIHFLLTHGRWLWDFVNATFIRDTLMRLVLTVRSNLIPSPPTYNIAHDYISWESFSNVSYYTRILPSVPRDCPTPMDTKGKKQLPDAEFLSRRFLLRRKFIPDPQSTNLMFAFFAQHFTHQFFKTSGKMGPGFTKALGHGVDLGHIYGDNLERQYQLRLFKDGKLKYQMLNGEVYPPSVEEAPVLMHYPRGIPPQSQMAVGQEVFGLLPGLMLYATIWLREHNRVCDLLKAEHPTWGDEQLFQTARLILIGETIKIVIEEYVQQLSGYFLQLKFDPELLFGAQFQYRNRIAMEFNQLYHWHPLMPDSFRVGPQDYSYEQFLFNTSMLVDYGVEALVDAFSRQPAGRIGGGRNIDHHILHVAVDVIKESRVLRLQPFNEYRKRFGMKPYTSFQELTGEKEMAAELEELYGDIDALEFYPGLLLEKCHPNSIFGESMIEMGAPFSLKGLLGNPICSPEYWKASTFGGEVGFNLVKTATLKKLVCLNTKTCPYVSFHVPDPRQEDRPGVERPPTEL
The assay is described as follows: Inhibition of ovine COX-1 at 10 uM relative to control.

The test system of assay [10] is FaDu. The assay is described as follows: Upregulation of cleaved caspase-3 level in human FaDu cells measured after 48 hrs by Western blot analysis. Type of assay: functional, cell-based. The note with it: dose 1-5 µM. (A western blot detects proteins with antibodies after separation by electrophoresis.)
Assay [11] relates to FaDu. The assay is described as follows: Inhibition of cell migration in human FaDu cells assessed as reduction in wound closure at 1 uM measured after 48 hrs by bright field microscopic analysis relative to control. Type of assay: functional.
For assay [12], the system named is FaDu. The assay is described as follows: Induction of morphological changes in human FaDu cells assessed as appearance of detached cells at 2 to 5 uM incubated for 48 hrs by bright field microscope based analysis. Type of assay: functional, cell-based. The note with it: dose 2-5 µM.
The test system of assay [13] is FaDu. The assay is described as follows: Induction of morphological changes in human FaDu cells assessed as appearance of detached cells at 1 uM incubated for 48 hrs by bright field microscope based analysis. Type of assay: functional, cell-based.
For assay [14], the system named is FaDu. The assay is described as follows: Induction of morphological changes in human FaDu cells assessed as reduction in cell density at 1 uM incubated for 48 hrs by bright field microscope based analysis. Type of assay: functional.
Assay [15] deals with MCF7. The assay is described as follows: Induction of cell cycle arrest in human MCF7 cells assessed as accumulation of cells at S phase measured after 24 hrs by PI staining based flow cytometry analysis (reference value: 24.7%). Type of assay: functional.
Assay [16] relates to FaDu. The assay is described as follows: Inhibition of cell migration in human FaDu cells assessed as reduction in wound closure at 5 uM measured after 48 hrs by bright field microscopic analysis relative to control. Type of assay: functional.
Assay [17] concerns FaDu. The assay is described as follows: Induction of morphological changes in human FaDu cells assessed as appearance of rounded cells at 2 to 5 uM incubated for 48 hrs by bright field microscope based analysis. Type of assay: functional, cell-based. The note with it: dose 2-5 µM.
Assay [18] deals with FaDu. The assay is described as follows: Inhibition of colony formation in human FaDu cells assessed as reduction in colony formation at 1 to 5 uM incubated for 48 hrs crystal violet staining based analysis (reference value: 62.58%). The note with it: dose 1-5 µM. Type of assay: functional.

Active and inactive are the calls of the source. The rule behind the calls is not given here.

As a reminder, the inhibition is the change of the read-out against control, counted positive when it falls. In general, IC50 refers to the concentration that gives 50% inhibition. For the compound `Brc1ccc(Cc2nc(N3CCN(c4ccncc4)CC3)c3c4c(sc3n2)CCCC4)cc1`, the inhibition result in the assay with FaDu [1] and in the assay with MCF7 [6] was “Active” in each case. For the same compound, the outcome in the assay on FaDu [2], in the assay on FaDu [5], in the assay with FaDu [7], in the assay on FaDu [12], in the assay on FaDu [13] and with FaDu [14] was Active. The result in the assay on FaDu [17] was Active. In addition, the inhibition came to 75.7% in [3] and 46.5% in assay [9]. Further, the Activity with MCF7 [4] was 52.8%; in the assay on FaDu [8] (dose 0.5-50 µM), “Dose-dependent-effect”; with FaDu [10], “Dose-dependent-effect”; in the assay with MCF7 [15], 17.8%. For the same compound, in the assay on FaDu [8], the IC50 stood at 3.06 µM. The inhibition at 1 µM in the assay on FaDu [11] is 64.7%. Also, in the assay with FaDu [16], the inhibition at 5 µM came to 24.4%. Besides, in the assay with FaDu [18], the “inhibition (INH)” value is listed as 19.35%.
